Test results reported in patent publication US4416826A, “Peresters and use thereof” (priority 1980, dated 1983).

Tests used:
[1] = Stern-Volmer triplet quenching with naphthalene; format: physicochemical; details: CCl4
From the text: All the peresters give linear Stern-Volmer plots when naphthalene is used as triplet quencher.

Triplet energy = format: physicochemical
[2] = Relative quantum yield of initiator decomposition in presence of monomer (IR at 1770 cm^-1); format: physicochemical; details: benzene, initiator 2 × 10^-2 M
Procedure: Commercial methyl methacrylate monomer is washed three times with 2% NaOH solution to remove stabilizer. It is then washed with distilled water three times, dried with molecular sieves, and distilled under vacuum before use. Polymerization solutions are prepared in cylindrical tubes which are degassed and sealed. The amount of polymer formed is determined by precipitating the polymer with an excess of methanol, washing with methanol, and filtering through fine sintered crucibles (previously weighed) followed by drying in a vacuum oven. The irradiation condition is the same as that in the decomposition rate example hereinabove.
The irradiations are carried out in degassed (three cycles of freeze-thaw under high vacuum) sealed 15-mm Pyrex tubes. The tubes are placed in a merry-go-round with a filtered UV source of 366 nm at the center and the yield of polymer is measured (below 10% conversion) gravimetrically. In all of the cases, tubes of the same size and same volume of solution are used. Number-average molecular weights of the purified polymers are determined by viscometry in a benzene solution. […] The solution then is centrifuged and the IR of the centrifugate is measured to determine undecomposed perester. […] The light intensity is measured by benzophenone-benzhydrol actinometry and observed to be Io =6.56×10^17 quanta/min on the average. […]

[3] = Photopolymerization of styrene, radical efficiency
Procedure: Commercial styrene is washed three times with ice cold 2% NaOH solution followed by washing (four times) with distilled water. The styrene is dried over anhydrous CaCl2 and distilled under vacuum before use. The middle fraction of the distillate is used for polymerization. Solvents are purified by conventional means and distilled under N2 atmosphere.
The irradiations are carried out in degassed (three cycles of freeze-thaw under high vacuum) sealed 15-mm Pyrex tubes. The tubes are placed in a merry-go-round with a filtered UV source of 366 nm at the center and the yield of polymer is measured (below 10% conversion) gravimetrically. In all of the cases, tubes of the same size and same volume of solution are used. Number-average molecular weights of the purified polymers are determined by viscometry in a benzene solution. After the polymerization, an aliquot of 0.5 ml from each reaction tube is placed in 2-ml volumetric flasks. The solvent and excess monomer are evaporated under high vacuum for several hours. The remaining flask contents are dissolved in 0.5 ml of benzene or chloroform and the polymer is precipitated by adding 0.5 ml of n-hexane. The solution then is centrifuged and the IR of the centrifugate is measured to determine undecomposed perester. All of the above procedures are carried out as far as possible in the dark. The light intensity is measured by benzophenone-benzhydrol actinometry and observed to be Io =6.56×10^17 quanta/min on the average. The temperature of the tubes is maintained at 30° C.
The efficiency of the radicals to initiate polymerization, f, in the absence of any appreciable amount of chain transfer, can be defined as [formula] assuming bimolecular termination by the combination of two growing chains only [formula] whereas kd =rate of decomposition of perester in mol/liter sec. in the absence of monomer (a function of light intensity).

[4] = benzene, [I] 0.31 × 10^-3 M, [M] 3.5 M
[5] = benzene, [I] 0.63 × 10^-3 M, [M] 3.5 M
[6] = benzene, [I] 1.15 × 10^-3 M, [M] 3.5 M
[7] = benzene, [I] 2.52 × 10^-3 M, [M] 3.5 M
[8] = benzene, [I] 5.03 × 10^-3 M, [M] 3.5 M
[9] = benzene, [I] 8.05 × 10^-3 M, [M] 3.5 M
[10] = benzene, [I] 10.0 × 10^-3 M, [M] 2.0 M
[11] = benzene, [I] 10.0 × 10^-3 M, [M] 3.5 M
[12] = benzene, [I] 10.0 × 10^-3 M, [M] 5.0 M
[13] = chloroform, [I] 1.11 × 10^-3 M, [M] 4.33 M
[14] = chloroform, [I] 2.28 × 10^-3 M, [M] 4.33 M
[15] = chloroform, [I] 5.14 × 10^-3 M, [M] 4.33 M
[16] = chloroform, [I] 9.92 × 10^-3 M, [M] 4.33 M

quenching constant kq τ [1]: 7.5
triplet energy ET (Triplet energy): 67.7 kcal/mol
relative quantum yield φrel of decomposition ([2]; methyl methacrylate 2.34 M): 0.88
relative quantum yield φrel of decomposition ([2]; methyl methacrylate 4.68 M): 0.80
kd, rate of decomposition of perester in the absence of monomer ([3]; Table X footnote): 0.000512 mol/L/s
φrel [3, 4]: 0.14
φrel [3, 5]: 0.14
φrel [3, 6]: 0.14
φrel [3, 7]: 0.14
φrel [3, 8]: 0.14
φrel [3, 9]: 0.14
φrel [3, 10]: 0.25
φrel [3, 11]: 0.14
φrel [3, 12]: 0.12
φrel ([3]; chloroform, [I] 0.14 × 10^-3 M, [M] not given): 1.32
φrel [3, 13]: 0.14
Compound: CC(C)(C)OOC(=O)c1ccc(C(=O)c2ccccc2)cc1 [Ia, t-Butyl-4-Benzoylperbenzoate]
radical efficiency, in words [3]: approaches unity at low initiator concentrations
Average degree of polymerization [3, 4]: 320.4
Radical efficiency f [3, 4]: 0.92
Rp × 10^5 [3, 4]: 0.65 mole/liter sec
Average degree of polymerization [3, 5]: 166.7
Radical efficiency f [3, 5]: 1.21
Rp × 10^5 [3, 5]: 0.92 mole/liter sec
Average degree of polymerization [3, 6]: 155.5
Radical efficiency f [3, 6]: 1.00
Rp × 10^5 [3, 6]: 1.29 mole/liter sec
Average degree of polymerization [3, 7]: 102.8
Radical efficiency f [3, 7]: 0.79
Rp × 10^5 [3, 7]: 1.47 mole/liter sec
Average degree of polymerization [3, 8]: 85.7
Radical efficiency f [3, 8]: 0.56
Rp × 10^5 [3, 8]: 1.72 mole/liter sec
Average degree of polymerization [3, 9]: 77.2
Radical efficiency f [3, 9]: 0.41
Rp × 10^5 [3, 9]: 1.83 mole/liter sec
Average degree of polymerization [3, 10]: 48.0
Radical efficiency f [3, 10]: 0.16
Rp × 10^5 [3, 10]: 0.95 mole/liter sec
Average degree of polymerization [3, 11]: 137.2
Radical efficiency f [3, 11]: 0.15
Rp × 10^5 [3, 11]: 1.50 mole/liter sec
Average degree of polymerization [3, 12]: 219.2
Radical efficiency f [3, 12]: 0.16
Rp × 10^5 [3, 12]: 2.08 mole/liter sec
Average degree of polymerization [3, 13]: 186.0
Radical efficiency f [3, 13]: 0.89
Rp × 10^5 [3, 13]: 1.32 mole/liter sec
Average degree of polymerization [3, 14]: 130.0
Radical efficiency f [3, 14]: 0.86
Rp × 10^5 [3, 14]: 1.83 mole/liter sec
Average degree of polymerization [3, 15]: 102.9
Radical efficiency f [3, 15]: 0.37
Rp × 10^5 [3, 15]: 2.01 mole/liter sec
Average degree of polymerization [3, 16]: 80.5
Radical efficiency f [3, 16]: 0.40
Rp × 10^5 [3, 16]: 2.29 mole/liter sec
rate of polymerization of styrene, in words ([3]; same concentration of initiators and monomer): almost double
